The source of these data is PMC4460047 (PLoS ONE, 2015).

A short description of data set [1]: Plasma levels after oral administration to Wistar rats. The data set is classed as in vivo, rat. The note with it: for AUC(0-t) / concentration at 15 min / concentration at 30 min / concentration at 60 min / concentration at 120 min / concentration at 240 min / concentration at 360 min / concentration at 480 min: male, rat, plasma, po, n = 9; for AUC(0-t): Wistar, administered compound, mean±SEM, read-out: AUC0- 480 (converted); for AUC(0-t) / Cmax of administered compound in rat plasma / Time of Cmax of administered compound in rat plasma: p.o.; for concentration at 15 min / concentration at 30 min / concentration at 60 min / concentration at 120 min / concentration at 240 min / concentration at 360 min / concentration at 480 min: p.o. 145 mg kg-1, Wistar rats, mean ± SEM; for concentration at 15 min: read-out: Prodrug Conc in plasma, 15 min; for concentration at 30 min: read-out: Prodrug Conc in plasma, 30 min; for concentration at 60 min: read-out: Prodrug Conc in plasma, 60 min; for concentration at 120 min: read-out: Prodrug Conc in plasma, 120 min; for concentration at 240 min: read-out: Prodrug Conc in plasma, 240 min; for concentration at 360 min: read-out: Prodrug Conc in plasma, 360 min; for concentration at 480 min: read-out: Prodrug Conc in plasma, 480 min; for Cmax of administered compound in rat plasma / Time of Cmax of administered compound in rat plasma: PEA 100 mg kg-1, 20, 28 145 mg kg-1. Here is the method: Twenty-seven male Wistar rats (Charles River Laboratories, Italy), 150–250 g in weight, were used in the study. Number of animals was calculated by G-power a priori analysis (α = 0.05 and β = 0.05). Animals were housed in group in policarbonate cages (Tecniplast, Italy) in a conventional facility with controlled temperature 22±1°C, a relative humidity of 55±5%, and a 12 h light/dark cycle (6:00 am to 6:00 pm). The rats were provided standard pellet diet (4RF21 GLP Mucedola, Italy) and water ad libitum throughout the study. The experiments were started only after acclimatization of animals to the laboratory conditions. Before the experiments, rats were fasted for 18 h, with free access to drinking water. Animals were randomized in three experimental groups (nine animals for each group) receiving respectively L-Val-PEA (20), D-Val-PEA (28) and PEA (1).
The day of the experiments substances were turned into a corn oil suspension, after ultrasound and vortexing and they were administered to rats between 8.00 and 10.00 am by gastric gavage at the equimolar doses of 145 mg kg^-1 for L- and D-Val-PEA (20, 28) and 100 mg kg^-1 of PEA (1). Blood samples were collected via sub-tongue puncture from each anaesthetized rat (2% isofluran in air) to minimize any suffering. Blood samples of 0.2 mL were collected before treatment and at 15, 30, 60, 120, 240, 360 and 480 min post-dosing into EDTA-treated tubes (Sarstedt, Germany), immediately centrifuged (5000 rpm, 10 min, 4°C; refrigerated microcentrifuge Z 216 MK, Hermle LaborTechnik). Resulting plasma was immediately processed by protein precipitation with ice-cold acetonitrile containing the IS 75 nmol L^-1 (PEA-d4) and analyzed as previously described. AUC values were calculated employing the software add-ons of Microsoft Excel.

Data set [2] can be described thus: Stability in 20% w/v rat liver homogenate. As to conditions: for half-life at 50 nM: rat liver homogenate, read-out: Rat Liver Compd t 1/2. The data set is classed as in vitro ADME. Here is the method:
(§1) The chemical and metabolic stability of PEA and all prodrugs were studied by incubating each compound (5 μL of a […] solution in DMSO, or DMSO as control) with 495 μL of 10 mM phosphate buffered saline pH 7.4 for chemical stability, 80% v/v rat plasma or 20% w/v rat liver homogenate prepared accordingly to previously described procedures for metabolic stability, reaching a final concentration of 50 nm for the test compound.
(§2) Rat plasma and liver samples were pre-incubated at 37°C for 10 min before adding the compounds. After incubation for different time periods (0, 15, 30, 60, 120, 240 and 360 min), samples were deproteinized by adding 100 μL of acetonitrile with 75 nmol L^-1 IS (PEA-d4). The samples were centrifuged (14 000 g, 10 min, 4°C), and the supernatants were analyzed by HPLC–ESI–MS/MS. For each tested compound, a multiple reaction monitoring (MRM) ESI–MS/MS method was set up in order to monitor the relative concentration of compound and released PEA at the different incubation times, compared to the time t = 0, in rat plasma and liver homogenate.

A short description of data set [3]: Stability and PEA release in 80% v/v rat plasma. The note with it: for half-life at 50 nM: rat, pH 7.4, 80% v/v rat plasma, 50 nm compound, read-out: Rat Plasma Compd t 1/2. The data set is classed as in vitro ADME. How it is done:
as §1, §2
Cmax and tmax in rat plasma were read from the raw data as the coordinates of the highest concentration observed. A Thermo TSQ Quantum triple-quadrupole mass spectrometer (Thermo Italia, Milan, Italy) with heated electrospray ionization (H-ESI) ion source was used for mass detection and analysis. Mass spectrometric analyses were done in positive ion mode. H-ESI interface parameters were set as follows: probe middle (D) position; capillary temperature 270°C; spray voltage 3.0 kV. Nitrogen was used as nebulizing gas at the following pressure: sheath gas 35 psi; auxiliary gas 15 arbitrary units (a.u.). Argon was used as the collision gas at a pressure of approximately 1.5 mtorr (1 torr = 133.3 Pa). For quantitative analysis, the following parent ion → product ions transitions were selected: PEA (1): m/z 300.2 → m/z 62.3 (tube lens 60 V; collision energy 19 eV); PEA-d4 (Internal Standard): m/z 304.2 → m/z 66.3 + m/z 287.2 (tube lens 72 V; collision energy 15, 12 eV). MRM transitions, tube lens voltages and collision energies for compounds 3–5, 7–9, 19–24, 26–31, and 33 are reported in the S1 File. […] The coefficients of correlation (r^2) were >0.99 for all curves. The LOQ was 1 nmol mL^−1 for all analytes. Extraction efficiency was determined by comparing the peak area ratio of spiked samples at three concentration levels (low, intermediate, and high) to those of extracted charcoal treated blank plasma spiked with the corresponding concentrations. The mean extraction recovery ranged from 109% to 91% for all compounds. The specificity of the assay was evaluated by comparison of HPLC–ESI–MS/MS chromatograms of the analytes at the LOQ to those of charcoal treated blank plasma samples in triplicate.

Data set [4] in a line: Chemical stability in phosphate buffered saline pH 7.4. In kind it is physicochemical. The note with it: percent remaining after 6 h of incubation at 37°C in PBS buffer pH 7.4. How it is done: as §1, §2
For data set [5], the system named is amidase activity in rat liver homogenate. The data set is classed as biochemical. From the text: Fig 8 Role of amidase activity on compound degradation in rat liver homogenate.
The subject of the next data set is liver FAAH. More on the design: method as in PMID 17217969. As to conditions: cited from earlier work.
The conditions of data set [6]: Beagle dogs, oral 30 mg kg-1; cited from earlier work.
[7] abbreviates: rat, 20% w/v rat liver homogenate, 37°C.
The mark [8] stands for this setting: after addition of 25 pmol of PEA, 80% v/v rat plasma.

With `CCCCCCCCCCCCCCCC(=O)NCCOC(=O)[C@@H](N)C(C)C.Cl` [compound 20, 2-(palmitoylamino)ethyl L-valinate hydrochloride], in data set [1], the AUC(0-t) is 129 ng·h/mL, the concentration at 15 min was found to be 612 nM, the concentration at 30 min was determined as 212 nM and the concentration at 60 min is 35.8 nM. Further, in data set [1], the concentration at 120 min was found to be 22.2 nM, the concentration at 240 min was determined as 7.1 nM, the concentration at 360 min worked out at 2.7 nM and the concentration at 480 min was 9.3 nM. Also, in data set [1], the “Cmax of administered compound in rat plasma” value amounted to 612 nm and the “Time of Cmax of administered compound in rat plasma” value (“Time of Cmax … in rat plasma” below) turned out to be 15 min. For the same compound, the half-life at 50 nM in data set [2] (setting [7]) worked out at 26 ± 1 min. Also, the “Increase in plasma half-life relative to L-Ala-PEA” value in data set [3] (rat plasma) was determined as 46 fold. In addition, in data set [3] (80% v/v rat plasma, 37°C), the half-life at 50 nM was found to be 46 ± 3 min. The “%Compd at 6 h, pH 7.4” value in data set [4] stood at 91 ± 2%.
Broadly, the IC50 is the midpoint of a concentration-inhibition curve. For `NC(=O)c1cccc(-c2cccc(OC(=O)NC3CCCCC3)c2)c1` [URB597, cyclohexylcarbamic acid 3'-carbamoylbiphenyl-3-yl ester], in data set [5] (URB597 10 μm pre-incubation), the “Effect on PEA hydrolysis” value is “complete inhibition of PEA hydrolysis” and the “Effect on conversion of 20 into PEA” value was “quantitative conversion of 20 into PEA”. In data set [5] (URB597 100 nm, 10 min pretreatment, p<0.05), the “Effect on PEA concentrations vs control incubations of PEA and 20” value is listed as “partial, but statistically significant, increase of PEA concentrations”. Besides, the IC50 in the data set with liver FAAH was around 3 nM.
The term share remaining denotes the share of the starting amount still present when the sample was taken. With `CCCCCCCCCCCCCCCC(=O)NCCOC(=O)[C@H](N)C(C)C.Cl` [compound 28, 2-(Palmitoylamino)ethyl D-valinate hydrochloride], in data set [1], the AUC(0-t) was 231 ng·h/mL, the concentration at 15 min came to 907 nM, the concentration at 30 min was found to be 280 nM and the concentration at 60 min is 65.9 nM. For the same compound, in data set [1], the concentration at 120 min is 56.4 nM, the concentration at 240 min turned out to be 39.9 nM, the concentration at 360 min is 11.4 nM and the concentration at 480 min was found to be 10.1 nM. Also, in data set [1], the “Cmax of administered compound in rat plasma” value stood at 907 nm and the “Time of Cmax … in rat plasma” value was 15 min. Also, in data set [2] (rat, 20% w/v rat liver homogenate, 37°C, 2 h, read-out: Percent remaining after 2 h incubation in rat liver homogenate), the fraction remaining at 2 h, 50 nM turned out to be 67 ± 9%. In data set [3] (rat plasma), the “Rat plasma half-life relative to L-Val-PEA (20)” value is “over 6 fold”. Moreover, in data set [3] (80% v/v rat plasma, 37°C), the half-life at 50 nM is 173 ± 4 min. Further, the “%Compd at 6 h, pH 7.4” value in data set [4] is reported as 87 ± 2%.
Take `CCCCCCCCCCCCCCCC(=O)NCCO` [compound 1, Palmitoylethanolamide, reference compound]: in data set [1], the AUC(0-t) is 109 ng·h/mL, the “Cmax of administered compound in rat plasma” value is 420 ± 132 nm and the “Time of Cmax … in rat plasma” value is reported as 15 min. In addition, the “Increase of PEA basal plasma values at Cmax” value in data set [1] (p.o. PEA 100 mg kg-1, 15 min) was 20 fold. For the same compound, the “PEA concentration in rat liver homogenate after 120 min” value in data set [2] (no detectable basal PEA levels) is 4.0 ± 1.2 nM. In data set [2] (setting [7]), the half-life at 50 nM was around 25 min. Further, in data set [6], the “Increase in basal plasma levels at Cmax” value is recorded as “five-fold increase” and the “Time of maximal plasma concentration (Cmax)” value is 1 to 2 h. Further, in data set [3] (setting [8]), the “PEA concentration in rat plasma after 1 h” value stood at 56.2 ± 4.3 nM, the “PEA concentration in rat plasma after 6 h” value came out at 44.0 ± 3.2 nM and the “PEA concentration in rat plasma at starting point” value came out at 71.9 ± 2.1 nM. Also, in data set [3] (pH 7.4, 80% v/v rat plasma, 37°C, 6 h, read-out: Percent remaining after 6 h incubation in rat plasma), the share remaining at 6 h, 50 nM worked out at 70 ± 2%. For the same compound, in data set [4], the “%Compd at 6 h, pH 7.4” value came out at 95 ± 1%. In data set [4] (listed as PEA), the “%Compd at 6 h, pH 7.4” value worked out at 95%.
